Laboratory results reported in patent publication US5905074A, “Vitamin D derivative” (Hoffmann-La Roche Inc., priority 1995, dated 1999).

Experiments:
HL-60 cells = assay: HL-60 differentiation (NBT reduction, oxidative burst potential); assay type: cell-based; conditions: Homo sapiens, HL-60, 72 h; 3 days; 50% of maximal differentiation achieved with 100-1000 nM calcitriol
Protocol: The induction of differentiation of HL-60 cells was assayed by measuring their oxidative burst potential via the reduction of NBT (Nitro-bluetetraolium) according to a modified procedure of E. Pick et al. in J. Reticul.
30,000 cells/90 μl of RPMI/FCS were seeded into flat-bottomed microtiter wells. Immediately after seeding, 10 μl of vitamin D derivatives diluted in complete medium (RPMI/FCS) were added to yield final concentrations between 10^-11 and 10^-6 M (starting from 1 mM stock solutions in ethanol which were stored at -20° and protected from light). After 3 days, the medium was removed with a multichannel pipette and replaced with 100 μl of NBT solution (1 mg/ml in Dulbecco's PBS with 200 nM phorbol myristate acetate (PMA)). Following an incubation of 1 hour at 37° C. the NBT solution was removed and 100 μl of 10% SDS in 0.01N HCl was added. After further incubation at 37° C. for 6 hours (or more), the amount of the reduced NBT was quantified photometrically at 540 nm using an automated plate reader. The mean of 3 wells was calculated.
Values were expressed as percent of maximal differentiation achieved with 100-1000 nM calcitriol in the same experiment.

human VDR = target: T1, human VDR (Homo sapiens, UniProt P11473); assay: VDR activation (transcription activation assay, luciferase reporter); assay type: cell-based; conditions: half-maximal induction of luciferase activity
T1 construct: expressed in transfected cells; host or cells: COS cells or CV-1 cells (VDR expressed in pSG5)
T1 sequence (P11473 1-427): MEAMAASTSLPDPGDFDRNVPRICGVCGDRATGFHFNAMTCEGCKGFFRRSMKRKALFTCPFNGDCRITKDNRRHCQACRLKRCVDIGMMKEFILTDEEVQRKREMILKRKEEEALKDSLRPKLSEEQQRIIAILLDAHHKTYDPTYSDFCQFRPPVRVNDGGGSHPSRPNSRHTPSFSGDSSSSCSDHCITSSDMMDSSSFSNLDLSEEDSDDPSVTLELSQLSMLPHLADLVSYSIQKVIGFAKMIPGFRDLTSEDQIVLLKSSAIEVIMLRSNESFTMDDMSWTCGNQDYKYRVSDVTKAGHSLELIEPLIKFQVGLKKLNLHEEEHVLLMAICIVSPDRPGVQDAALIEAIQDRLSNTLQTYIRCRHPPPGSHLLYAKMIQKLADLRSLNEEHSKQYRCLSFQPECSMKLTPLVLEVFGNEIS
Description: In order to measure the activation of the vitamin D receptor (VDR) by vitamin D analogs in cells a transcription activation assay was used. COS cells or CV-1 cells were cotransfected with the human VDR (expressed in pSG5) and a reporter gene containing three response elements (VDRE3) from the rat osteocalcine gene, the thymidine kinase basal promoter, and the luciferase reporter gene.

[1] = Calcium liability (tolerance test in mice); conditions: mouse, in vivo, sc; daily subcutaneous, 4 consecutive days; dose resulting in zero weight gain during 5 day treatment period; read-out: highest tolerated dose (mice)
Description: This routine test gives a global picture of calcemic liability. Profound changes in calcium homeostasis strongly affect the weight development of the animals. This parameter was used as a primary test for tolerance.
Mice (25-30 g body weight) received daily subcutaneous administrations of the vitamin D derivative for 4 consecutive days. Body weight was registered just before and at the end of a […] treatment period. The "highest tolerated dose" (HTD) in mice is the dose which results in zero weight gain during this treatment period.

SMILES | EC50 (HL-60 cells) [nM] | EC50 (human VDR; COS cells) [nM] | EC50 (human VDR; CV-1 cells) [nM] | MTD [1] [µg/kg]
C=C1/C(=C\C=C2/CCC[C@]3(C)[C@@H]([C@H](C)CCCC(C)(C)O)CC[C@@H]23)C[C@@H](O)C[C@@H]1O [Calcitriol, reference compound] | 5 | – | – | –
C=C1/C(=C\C=C2/CCC[C@]3(C)[C@@H]([C@H](C)CCCC(C)(C)O)CCC[C@@H]23)C[C@@H](O)C[C@@H]1O [Compound of formula I, (1R,3S)-5-[(Z)-2-[(E)-(4aR,5R,8aR)-5-[(R)-5-Hydroxy-1,5-dimethyl-hexyl]-4a-methyl-octahydro-naphtalen-1-ylidene]-ethylidene]-4-methylene-cyclohexane-1,3-diol] | 0.37 | 1.2 | 0.04 | 0.6
